This is an account of results in ChEMBL document CHEMBL3507680, “University of Dundee, Gates Library screen for HepG2 cell viability”.

The data set in a line: Human HepG2 cell viability assay in 384 well format. It is filed as toxicity, cell-based. Also on record: dose 125 nL, time 70.5 hour; concentration not given beside the values. Particulars: HepG2 cells, read-out: Inhibition.
Take `CCOc1ccc(CN2C(=O)CC3(CCCC3)C2=O)nc1`: the cytotoxicity at 70.5 h turned out to be 17.6%.
For the compound `CCOc1ccc(CN2C(=O)CC(C)(C)C2=O)nc1`, the cytotoxicity at 70.5 h was 2.3%.
The result for `O=C(CNC(=O)C1CC1)NCC1CCCC1` reads 4.06%; that for `CCC1CN(C(=O)COc2ccc(C(=O)NC3CC3)cc2)CCO1` (centres undefined), -2.32%; that for `CN(C)C(=O)C1CN(Cc2ccc(C#N)cc2F)c2ccccc2O1` (centres undefined), -0.947%.
The result for `CC(Cn1cccn1)NC(=O)NCCCN1CCc2ccccc2C1` (centres undefined) reads 14.2%; that for `CC(C)(C)OC(=O)N1CSC[C@@H]1C(=O)NCc1ccncc1`, -2.13%; that for `CC(CC(=O)Nc1ncn(CC(=O)N2CCCCCC2)n1)C1CC1` (centres undefined), 0.138%.
The result for `CC(C)(C)CC(=O)N1CSCC1C(=O)NCc1cccc(C#N)c1` (centres undefined) reads 15.4%.
In the case of `CCCSCC(=O)Nc1ncn(CC(=O)N2CCCCCC2)n1`, the cytotoxicity at 70.5 h was -1.09%.
The result for `CCc1noc(CN(C)CCC(=O)Nc2ccc(Cl)cc2)n1` reads -0.958%.
The result for `CCn1c(CN2CCOC(Cn3cncn3)C2)nc2cc(F)ccc21` (centres undefined) reads 0.647%; that for `CCOc1cc(C(=O)NS(C)(=O)=O)cc(-c2ccccc2)c1OC`, 0.968%; that for `CCc1cc(CNC(=O)N2Cc3ccccc3N(C)CC2C)on1` (centres undefined), 3.84%.
With `Cc1cc(C(C)(O)CNC(=O)OC(C)(C)C)c(C)o1` (centres undefined), the cytotoxicity at 70.5 h was 0.912%.
The result for `O=S(=O)(Nc1ncccc1F)c1cc(Cl)cc2c1OCC2` reads 6.97%; that for `CCCS(=O)(=O)NC(=O)c1ccc(CC)o1`, 2.47%; that for `CCc1ccc(CN2CCC3(CC(C(=O)NCC(C)C)=NO3)C2)o1` (centres undefined), -7.77%.
The result for `O=C(Cc1ccccc1)N1CCC2(CC1)CC(Nc1cnccn1)CO2` (centres undefined) reads -8.13%; that for `c1ccn(Cc2nnc3n2CCCN(c2cnccn2)C3)c1`, 16%; that for `CC(C)CS(=O)(=O)N1C[C@H]2C[C@H](C(=O)N3CCOCC3)[C@@H](C1)O2`, 13.9%.
The result for `Cc1cccc(CN2CCc3onc(CN(C)C)c3C2)n1` reads 0.439%.
Turning to `NC(=O)c1nc2c(s1)CCN(C(=O)Nc1ccccc1)CC2`, the cytotoxicity at 70.5 h was 9.18%.
For the compound `O=C(c1cscn1)N1CCc2ncnc(-c3ccncc3)c2CC1`, the cytotoxicity at 70.5 h is -2.35%.
Turning to `O=C1C[C@H]2[C@H](CCN2C(=O)c2ccno2)N1CC1CC1`, the cytotoxicity at 70.5 h was -4.81%.
The result for `CCN(CC)C(=O)c1nc2c(s1)CCN(C(=O)Nc1ccccc1)CC2` reads 5.97%.
The result for `O=C1N(Cc2cccc(F)c2)CCC12CCCN(c1ncc(F)cn1)C2` (centres undefined) reads -5.64%.
The result for `CS(=O)(=O)NC[C@H]1OC[C@@H]2CN(Cc3cccnc3)CC[C@@H]21` reads -2.64%; that for `CN(C)Cc1noc2c1CN(Cc1ccc[nH]1)CC2`, -1.45%.
On to `CC(C)n1nc(CN2CCCC2=O)c2c1CN(C(=O)c1ccc[nH]1)C2`, for which the cytotoxicity at 70.5 h is -5.63%.
The result for `Cc1nc(Cn2c3c(ccc2=O)CC(N)CC3)cs1` (centres undefined) reads 4.04%; that for `Cc1noc([C@H]2CC[C@@H]3[C@@H](CCN3c3ncccn3)O2)n1`, -6.01%.
On to `O=C1CCCN1Cc1nnc2n1CCN(Cc1ccco1)C2`, for which the cytotoxicity at 70.5 h is 2.02%.
Regarding `CN1C(=O)C(c2cccnc2)CC12CCN(Cc1nccs1)CC2` (centres undefined), the cytotoxicity at 70.5 h stood at 1.71%.
The result for `CCO[C@H]1CC[C@H]2[C@H]1OCCN2C(=O)c1nn(C)c2ccccc12` reads 0.53%.
The result for `COCCN1CCC2(CC1)CC(c1cccnc1)C(=O)N2C` (centres undefined) reads 1.48%.
The result for `CO[C@@H]1CC[C@H]2[C@H]1OCCN2C(=O)c1nn(C)c2ccccc12` reads 20.6%; that for `CN(C)C1CCN(C(=O)c2n[nH]c3c2CCN(CC2CCC2)C3)CC1`, 14.2%.
Turning to `CC(=O)N1CCC2(CCCN(Cc3ccc(Cl)c(C(F)(F)F)c3)C2)C1` (centres undefined), the cytotoxicity at 70.5 h is -5.25%.
Turning to `O=C1CC2(CCN(Cc3ccoc3)C2)CN1c1ccc2c(c1)OCO2` (centres undefined), the cytotoxicity at 70.5 h was 3.34%.
The result for `COCC(=O)N1CC[C@@H](O)[C@@H]1Cc1ccccc1` reads 5.48%; that for `COCCC(=O)N1CCn2c(COCC3CC3)cnc2C1C` (centres undefined), -0.0494%; that for `CCn1cc2c(n1)C(COC)CN(C(=O)COc1ccccc1C)C2` (centres undefined), -7.2%.
The result for `CC(C)NC(=O)N1C[C@H]2C[C@H](C(=O)NCc3ccccc3)[C@@H](C1)O2` reads -5.16%.
The result for `Cc1ncoc1C(=O)N1CCn2c(COCC3CC3)cnc2C1C` (centres undefined) reads 10.1%; that for `Cc1noc(C)c1C(=O)N1CC[C@H]2C[C@@H](c3ccncn3)O[C@@H]2C1`, -5.05%.
For `O=C(C1CCOCC1)N1CC[C@H]2C[C@@H](c3ccncn3)O[C@@H]2C1`, the cytotoxicity at 70.5 h is -8.58%.
On to `Cn1cccc1C(=O)N1CCCC2(CCCN2Cc2cccnc2)C1` (centres undefined), for which the cytotoxicity at 70.5 h is -5.57%.
The result for `CC(=O)N1CCC2(CC1)CNc1c(F)cccc12` reads -6.53%.
The result for `COCC(=O)N1CCc2ccccc2C12CCNCC2` reads 18.5%; that for `CCOC(=O)N1CCc2ccccc2C12CCNCC2`, -2.47%; that for `O=C(C1CC1)N1CCc2ccccc2C12CCNCC2`, -1.81%.
The result for `C1CCC(CN2Cc3nnn(CC4CC4)c3C(COCC3CC3)C2)C1` (centres undefined) reads -8.05%; that for `O=C(N1CCOCC1)[C@@]12CCO[C@@H]1CCN(Cc1cccc(F)c1)C2`, -8.34%.
With `Cn1ccnc1CN1CCC2(CC1)CCN(c1ccccc1)C2=O`, the cytotoxicity at 70.5 h was determined as 27.2%.
The result for `Cc1cccc(CN2CCc3onc(CO)c3C2)n1` reads 5.71%.
The result for `O=C1N(Cc2cccnc2)CCC12CCCN(c1ncc(F)cn1)C2` (centres undefined) reads -3.96%; that for `O=C([C@@H]1CC[C@@H]2[C@@H](CCN2c2ccncn2)O1)N1CCCCO1`, -0.768%; that for `Cn1ccc(C(=O)N2CCC3(CCN3c3ncccn3)C2)n1` (centres undefined), -1.24%.
Regarding `CCc1cnc(N2CC[C@H]3[C@@H]2CCC(=O)N3c2ccccc2)nc1`, the cytotoxicity at 70.5 h was 14.1%.
The result for `c1csc(CN2C[C@H](OCC3CC3)[C@H]3COC[C@H]32)n1` reads -3.74%; that for `CN(C)C(=O)CN1CCOCC2(C1)CN(c1ncc(F)cn1)CCO2` (centres undefined), -10.2%.
The result for `O=C1CC[C@H]2[C@H](CCN2c2ncccn2)N1c1ccccc1` reads -10.3%; that for `CN(C)C(=O)CN1CCOCC2(CCN(c3ncc(F)cn3)CC2)C1`, -6.93%; that for `CN(C)C(=O)CO[C@@H]1CC[C@H]2[C@H]1OCCN2c1ncc(F)cn1`, -6.35%.
Turning to `Cc1noc([C@@H]2C[C@@H]3CCN(c4nnc(C)s4)C[C@H]3O2)n1`, the cytotoxicity at 70.5 h was -11.6%.
The result for `Fc1cnc(N2CCO[C@H]3[C@H](OCC4CCOCC4)CC[C@@H]32)nc1` reads -9.91%; that for `Fc1cnc(N2C[C@@H](OCC3CCOCC3)[C@H]3OCCC[C@H]32)nc1`, -7.94%; that for `Cc1noc([C@@H]2CC[C@@H]3[C@@H](CCN3c3nnc(C)s3)O2)n1`, -8.18%.
The result for `Cc1cncc(C(=O)N2C[C@@H]3CN(S(C)(=O)=O)CCO[C@@H]3C2)c1` reads 19.6%.
The result for `CC(C)OCc1nn(C)c2c1CCN(CC1CC1)C2` reads -2.45%; that for `O=C(NC1CCC1)[C@H]1C[C@@H]2CN(CC3CC3)C[C@H]1O2`, -0.535%.
Turning to `CNC(=O)[C@@]12CCO[C@@H]1CCN(Cc1ccc3c(c1)OCO3)C2`, the cytotoxicity at 70.5 h amounted to 9.37%.
The result for `c1coc(CN2CCCn3c(nnc3Cn3cccc3)C2)c1` reads -3.91%.
The result for `O=C1CC2(CCN(CC3CC3)C2)CN1c1ccc2c(c1)OCO2` (centres undefined) reads 3.77%; that for `CN(C)CC(=O)N1CCC2(CC(=O)N(c3cccc(C#N)c3)C2)C1` (centres undefined), 4.59%.
On to `O=C(NCCCN1CCOCC1)c1ccn(-c2ccc3ccccn23)n1`, for which the cytotoxicity at 70.5 h was determined as 23.5%.
The result for `N#Cc1cccc(N2CC3(CCN(C(=O)c4cccnc4)C3)CC2=O)c1` (centres undefined) reads -0.309%; that for `O=C(C1=CCCCC1)N1CCC2(CC1)COC(COc1ccccn1)C2` (centres undefined), -3.14%; that for `CCOCC1CC2(CCN(C(=O)c3ccccn3)CC2)CO1` (centres undefined), -6.81%.
With `CN(C)CC(=O)N1C[C@H]2CCC[C@@]2(COc2ccccn2)C1`, the cytotoxicity at 70.5 h is -16.4%.
On to `c1cnn(Cc2nnc3n2CCCN(CC2CCOCC2)C3)c1`, for which the cytotoxicity at 70.5 h was -2.91%.
`COCC1CN(c2ccc(C)nn2)Cc2cnn(C)c21` (centres undefined): the cytotoxicity at 70.5 h was -7.14%.
The result for `O=S(=O)(C1CC1)N1CCC2(CC1)CN(Cc1ccccn1)CCO2` reads 14.8%; that for `Cc1cnc(N2CCO[C@@H]3CC(COCc4cccnc4)C[C@H]32)nc1` (some centres undefined), -0.9%; that for `c1csc(CN2Cc3nc(CN4CCCC4)oc3C2)c1`, -1.36%.
The result for `Cc1nc(Cn2c3c(ccc2=O)CC(NC(C)C)CC3)cs1` (centres undefined) reads -9.3%; that for `Fc1cccc(CN2C[C@@H]3CN(c4ncccn4)C[C@@H]3C2)c1`, -3.5%.
For `CCc1cnc(N2CC[C@H]3[C@@H]2CCC(=O)N3c2cccnc2)nc1`, the cytotoxicity at 70.5 h was -7.03%.
The result for `CC(C)n1nc(CN2CCCC2)c2c1CN(CC1CC1)CC2` reads -1.54%; that for `Cc1cccc(CN2CCC3(CC2)CC(c2cccnc2)C(=O)N3C)n1` (centres undefined), 15.6%.
The result for `c1ccc(OCC2C[C@@H]3[C@@H](C2)OCCN3CC2CCOCC2)nc1` (some centres undefined) reads -0.766%; that for `Cn1cc(CN2CCC3(CC2)CC(c2ccncc2)C(=O)N3)cn1` (centres undefined), -10.1%; that for `CN(C)CCOCC1CN(Cc2ccsc2)Cc2ccnn2C1` (centres undefined), 3.88%.
